Experiments:
[1] = molecular target: Protease (Human immunodeficiency virus 1, UniProt Q9YQ12); test: Binding affinity to HIV1 protease by ITC analysis
[2] = molecular target: Cathepsin D (Homo sapiens, UniProt P07339); test: Inhibition of cathepsin D (unknown origin)
[3] = Inhibition of pepsin (unknown origin); design: species or system Homo sapiens

Protease, sequence (Q9YQ12 whole entry): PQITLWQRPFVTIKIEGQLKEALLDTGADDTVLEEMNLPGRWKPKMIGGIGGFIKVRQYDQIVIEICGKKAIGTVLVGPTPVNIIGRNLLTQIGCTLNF
Cathepsin D, sequence (P07339 65-162 limits assumed): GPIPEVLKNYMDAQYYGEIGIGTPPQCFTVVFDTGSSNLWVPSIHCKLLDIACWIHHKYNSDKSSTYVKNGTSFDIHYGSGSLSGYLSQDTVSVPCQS
Cathepsin D, sequence (P07339 169-412 limits assumed): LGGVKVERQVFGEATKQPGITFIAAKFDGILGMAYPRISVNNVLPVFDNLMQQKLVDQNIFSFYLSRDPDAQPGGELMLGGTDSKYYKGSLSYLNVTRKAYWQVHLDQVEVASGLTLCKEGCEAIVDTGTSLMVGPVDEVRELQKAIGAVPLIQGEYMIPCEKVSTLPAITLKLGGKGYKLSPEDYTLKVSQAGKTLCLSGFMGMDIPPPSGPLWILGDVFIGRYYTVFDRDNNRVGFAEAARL

SMILES | Kd [1] | Kd [2] | Kd [3]
CSC[C@H](NC(=O)COc1cccc2cnccc12)C(=O)N[C@@H](Cc1ccccc1)[C@H](O)C(=O)N1CSC(C)(C)C1C(=O)N[C@H]1c2ccccc2C[C@H]1O (stereo partly drawn) | 0.013 nM |  | 
CC1(C)SCN(C(=O)[C@@H](O)[C@H](Cc2ccccc2)NC(=O)[C@H](CS(C)(=O)=O)NC(=O)COc2cccc3cnccc23)C1C(=O)N[C@H]1c2ccccc2C[C@H]1O (stereo partly drawn) | 0.021 nM |  | 
CC1(C)SCN(C(=O)[C@@H](O)[C@H](Cc2ccccc2)NC(=O)COc2ccccc2)C1C(=O)N[C@H]1c2ccccc2C[C@H]1O (stereo partly drawn) | 11.8 nM | 142 nM | 850 nM
Cc1cccc(C)c1OCC(=O)N[C@@H](Cc1ccccc1)[C@H](O)C(=O)N1CSC(C)(C)C1C(=O)N[C@H]1c2ccccc2C[C@H]1O (stereo partly drawn) | 0.14 nM | 22 nM | 345 nM

Reference: ChEMBL document CHEMBL2434968, “The thermodynamic basis for the use of lipophilic efficiency (LipE) in enthalpic optimizations” (Bioorg Med Chem Lett, 2013)
